Test results: patent US8822530B2, “Sulfur derivatives as chemokine receptor modulators” (Allergan, Inc., priority 2010, dated 2014)

biological target: T1, CCR2 receptor (Homo sapiens, UniProt P41597); experiment: Calcium activity assay on FLIPR Tetra in HEK-Gqi5 cells stably expressing CCR2; format: cell-based
T1 construct: expressed in transfected cells
Experimental: HEK-Gqi5 cells stably expressing CCR2 were cultured in DMEM high glucose, 10% FBS, 1% PSA, 400 μg/ml geneticin and 50 μg/ml hygromycin. Appropriate positive control chemokines (MCP-1, MIP1A or RANTES) was used as the positive control agonist for screening compound-induced calcium activity assayed on the FLIPR^Tetra. The drug plates were prepared in 384-well microplates using the EP3 and the MultiPROBE robotic liquid handling systems. Compounds were synthesized and tested for CCR2 activity.

T1 sequence (P41597 whole entry): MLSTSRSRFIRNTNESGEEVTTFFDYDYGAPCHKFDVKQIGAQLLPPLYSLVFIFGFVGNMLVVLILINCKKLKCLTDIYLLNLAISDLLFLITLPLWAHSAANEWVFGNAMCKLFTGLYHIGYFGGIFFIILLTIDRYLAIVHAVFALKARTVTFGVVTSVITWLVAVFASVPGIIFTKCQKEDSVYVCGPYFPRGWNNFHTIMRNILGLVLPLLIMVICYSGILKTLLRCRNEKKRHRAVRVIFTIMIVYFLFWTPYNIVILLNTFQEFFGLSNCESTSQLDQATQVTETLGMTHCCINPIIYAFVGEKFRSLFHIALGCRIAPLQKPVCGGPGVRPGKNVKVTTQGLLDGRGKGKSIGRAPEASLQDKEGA

Structure (SMILES)	CCR2 % ANTAGONISM [%]	IC50 [nM]
O=C(O)c1ccc(C[S+]([O-])c2ccc(Cl)cc2NS(=O)(=O)c2ccc(Cl)c(C(F)(F)F)c2)cc1 (stereo not drawn) [4-({[4-chloro-2-({[4-chloro-3-(trifluoromethyl)phenyl]sulfonyl}amino)phenyl]sulfinyl}methyl)benzoic acid]	23	2100
O=C(CCSc1ccc(Cl)cc1NS(=O)(=O)c1ccc(Cl)c(C(F)(F)F)c1)N1CCCC1 [4-chloro-N-(5-chloro-2-{[3-oxo-3-(pyrrolidin-1-yl)propyl]sulfanyl}phenyl)-3-(trifluoromethyl)benzenesulfonamide]	60	2290
O=C(CC[S+]([O-])c1ccc(Cl)cc1NS(=O)(=O)c1ccc(Cl)c(C(F)(F)F)c1)N1CCCC1 (stereo not drawn) [4-chloro-N-(5-chloro-2-{[3-oxo-3-(pyrrolidin-1-yl)propyl]sulfinyl}phenyl)-3-(trifluoromethyl)benzenesulfonamide]	72	1660
O=C(CCS(=O)(=O)c1ccc(Cl)cc1NS(=O)(=O)c1ccc(Cl)c(C(F)(F)F)c1)N1CCCC1 [4-chloro-N-(5-chloro-2-{[3-oxo-3-(pyrrolidin-1-yl)propyl]sulfonyl}phenyl)-3-(trifluoromethyl)benzenesulfonamide]	58	–
O=C(O)CSc1ccc(Cl)cc1NS(=O)(=O)c1cc2ccccc2o1 [({2-[(1-benzofuran-2-ylsulfonyl)amino]-4-chlorophenyl}sulfanyl)acetic acid]	95	484
O=C(O)CNC(=O)c1ccc(CSc2ccc(Cl)cc2NS(=O)(=O)c2ccc(Cl)c(C(F)(F)F)c2)cc1 [({[4-({[4-chloro-2-({[4-chloro-3-(trifluoromethyl)phenyl]sulfonyl}amino)phenyl]sulfanyl}methyl)phenyl]carbonyl}amino)acetic acid]	75	–
O=C(O)CNC(=O)c1ccc(C[S+]([O-])c2ccc(Cl)cc2NS(=O)(=O)c2ccc(Cl)c(C(F)(F)F)c2)cc1 (stereo not drawn) [({[4-({[4-chloro-2-({[4-chloro-3-(trifluoromethyl)phenyl]sulfonyl}amino)phenyl]sulfinyl}methyl)phenyl]carbonyl}amino)acetic acid]	24	–
CC(=O)Nc1cccc(CSc2ccc(Cl)cc2N(C(C)=O)S(=O)(=O)c2cc3ccccc3o2)c1 [N-(2-{[3-(acetylamino)benzyl]sulfanyl}-5-chlorophenyl)-N-(1-benzofuran-2-ylsulfonyl)acetamide]	73	1610
N#Cc1ccc(NS(=O)(=O)c2cc3ccccc3o2)c(SCc2ccccc2)c1 [N-[2-(benzylsulfanyl)-4-cyanophenyl]-1-benzofuran-2-sulfonamide]	79	604
O=S(=O)(Nc1cc(Cl)ccc1SCc1ccccc1)c1ccc(Cl)c(C(F)(F)F)c1 [N-[2-(benzylsulfanyl)-5-chlorophenyl]-4-chloro-3-(trifluoromethyl)benzenesulfonamide]	68	1280

More lines, now with the values ahead:

CCR2 % ANTAGONISM [%]	IC50 [nM]	Structure (SMILES)
94	1030	N#Cc1ccc(NS(=O)(=O)c2cc3ccccc3o2)c([S+]([O-])Cc2ccccc2)c1 (stereo not drawn) [N-[2-(benzylsulfinyl)-4-cyanophenyl]-1-benzofuran-2-sulfonamide]
77	493	O=S(=O)(Nc1cc(Cl)ccc1[S+]([O-])Cc1ccccc1)c1ccc(Cl)c(C(F)(F)F)c1 (stereo not drawn) [N-[2-(benzylsulfinyl)-5-chlorophenyl]-4-chloro-3-(trifluoromethyl)benzenesulfonamide]
96	888	N#Cc1ccc(NS(=O)(=O)c2cc3ccccc3o2)c(S(=O)(=O)Cc2ccccc2)c1 [N-[2-(benzylsulfonyl)-4-cyanophenyl]-1-benzofuran-2-sulfonamide]
71	538	O=S(=O)(Cc1ccccc1)c1ccc(Cl)cc1NS(=O)(=O)c1ccc(Cl)c(C(F)(F)F)c1 [N-[2-(benzylsulfonyl)-5-chlorophenyl]-4-chloro-3-(trifluoromethyl)benzenesulfonamide]
90	1280	CS(=O)(=O)Nc1cccc(CSc2ccc(Cl)cc2NS(=O)(=O)c2cc3ccccc3o2)c1 [N-[5-chloro-2-({3-[(methylsulfonyl)amino]benzyl}sulfanyl)phenyl]-1-benzofuran-2-sulfonamide]
77	2420	CS(=O)(=O)Nc1cccc(C[S+]([O-])c2ccc(Cl)cc2NS(=O)(=O)c2cc3ccccc3o2)c1 (stereo not drawn) [N-[5-chloro-2-({3-[(methylsulfonyl)amino]benzyl}sulfinyl)phenyl]-1-benzofuran-2-sulfonamide]
91	6570	CS(=O)(=O)Nc1cccc(CS(=O)(=O)c2ccc(Cl)cc2NS(=O)(=O)c2cc3ccccc3o2)c1 [N-[5-chloro-2-({3-[(methylsulfonyl)amino]benzyl}sulfonyl)phenyl]-1-benzofuran-2-sulfonamide]
73	–	O=C1CCc2cc(NS(=O)(=O)c3cc4ccccc4o3)c([S+]([O-])Cc3ccccc3)cc21 (stereo not drawn) [N-[6-(benzylsulfinyl)-1-oxo-2,3-dihydro-1H-inden-5-yl]-1-benzofuran-2-sulfonamide]
45	2240	O=C1CCc2cc(NS(=O)(=O)c3cc4ccccc4o3)c(S(=O)(=O)Cc3ccccc3)cc21 [N-[6-(benzylsulfonyl)-1-oxo-2,3-dihydro-1H-inden-5-yl]-1-benzofuran-2-sulfonamide]
96	379	CC(=O)Nc1cccc(CSc2ccc(Cl)cc2NS(=O)(=O)c2cc3ccccc3o2)c1 [N-{3-[({2-[(1-benzofuran-2-ylsulfonyl)amino]-4-chlorophenyl}sulfanyl)methyl]phenyl}acetamide]
95	–	CC(=O)Nc1cccc(C[S+]([O-])c2ccc(Cl)cc2NS(=O)(=O)c2cc3ccccc3o2)c1 (stereo not drawn) [N-{3-[({2-[(1-benzofuran-2-ylsulfonyl)amino]-4-chlorophenyl}sulfinyl)methyl]phenyl}acetamide]
100	854	CC(=O)Nc1cccc(CS(=O)(=O)c2ccc(Cl)cc2NS(=O)(=O)c2cc3ccccc3o2)c1 [N-{3-[({2-[(1-benzofuran-2-ylsulfonyl)amino]-4-chlorophenyl}sulfonyl)methyl]phenyl}acetamide]
88	2380	COC(=O)c1ccccc1CSc1ccc(Cl)cc1NS(=O)(=O)c1ccc(Cl)c(C(F)(F)F)c1 [methyl 2-({[4-chloro-2-({[4-chloro-3-(trifluoromethyl)phenyl]sulfonyl}amino)phenyl]sulfanyl}methyl)benzoate]
101	274	COC(=O)c1ccccc1C[S+]([O-])c1ccc(Cl)cc1NS(=O)(=O)c1ccc(Cl)c(C(F)(F)F)c1 (stereo not drawn) [methyl 2-({[4-chloro-2-({[4-chloro-3-(trifluoromethyl)phenyl]sulfonyl}amino)phenyl]sulfinyl}methyl)benzoate]
82	515	COC(=O)c1ccccc1CS(=O)(=O)c1ccc(Cl)cc1NS(=O)(=O)c1ccc(Cl)c(C(F)(F)F)c1 [methyl 2-({[4-chloro-2-({[4-chloro-3-(trifluoromethyl)phenyl]sulfonyl}amino)phenyl]sulfonyl}methyl)benzoate]
